Assay [1] concerns the target T1, Recombinant STAT3 protein (STAT3 (G127-I722)) (Homo sapiens, UniProt P40763).
T1 construct: Recombinant STAT3 protein (STAT3 (G127-I722))
The assay is described as follows: STAT3 Fluorescence Polarization (FP) Assay. The class given is binding. The note with it: STAT3 (G127-I722) 25 nM, probe 5-FAM-GpYLPQTV-NH2 2 nM, 45-minute incubation; read-out: STAT3 (FP assay IC50 class). An outline of the steps:
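Compounds in serial dilution receive a premix of STAT3 (G127-I722, 25 nM) and fluorescent phosphotyrosine peptide 5-FAM-GpYLPQTV-NH2 (2 nM) at pH 7.4. After 45 min at room temperature, FP is measured and IC50 derived by nonlinear regression.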
For orientation: Polarisation of emitted light reports the rotation of a fluorescent probe.

The target in assay [2] is T2, Recombinant STAT6 protein (STAT6 (W123-T658)) (Homo sapiens, UniProt P42226).
T2 construct: Recombinant STAT6 protein (STAT6 (W123-T658))
T2 sequence (P42226 123-658): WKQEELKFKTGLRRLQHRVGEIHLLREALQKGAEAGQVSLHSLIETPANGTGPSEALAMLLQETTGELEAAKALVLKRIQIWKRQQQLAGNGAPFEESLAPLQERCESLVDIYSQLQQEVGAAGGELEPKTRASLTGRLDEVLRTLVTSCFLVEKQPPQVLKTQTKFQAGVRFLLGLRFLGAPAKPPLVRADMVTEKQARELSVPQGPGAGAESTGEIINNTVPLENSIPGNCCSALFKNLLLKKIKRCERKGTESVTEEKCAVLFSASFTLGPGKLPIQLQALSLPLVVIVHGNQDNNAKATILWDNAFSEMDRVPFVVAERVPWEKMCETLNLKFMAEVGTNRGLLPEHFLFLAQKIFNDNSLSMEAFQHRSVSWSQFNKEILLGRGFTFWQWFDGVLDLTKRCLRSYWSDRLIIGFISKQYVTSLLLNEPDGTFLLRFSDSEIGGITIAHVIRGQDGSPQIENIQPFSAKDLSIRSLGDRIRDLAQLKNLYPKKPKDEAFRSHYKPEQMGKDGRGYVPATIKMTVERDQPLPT
Put plainly: STAT6 Fluorescence Polarization (FP) Assay. The format is binding. Conditions: STAT6 (W123-T658) 250 nM, probe 5-FAM-Ap[…]-NH2 2 nM, 45-minute incubation; read-out: STAT6 (FP assay IC50 class). An outline of the steps:
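Competitive FP binding: recombinant STAT6 (W123-T658) at 250 nM, labeled phosphotyrosine peptide at 2 nM, compounds at 1% DMSO, 45 min at RT before reading. IC50 values were obtained from nonlinear regression of mP versus log concentration.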

T1 sequence (P40763 127-722): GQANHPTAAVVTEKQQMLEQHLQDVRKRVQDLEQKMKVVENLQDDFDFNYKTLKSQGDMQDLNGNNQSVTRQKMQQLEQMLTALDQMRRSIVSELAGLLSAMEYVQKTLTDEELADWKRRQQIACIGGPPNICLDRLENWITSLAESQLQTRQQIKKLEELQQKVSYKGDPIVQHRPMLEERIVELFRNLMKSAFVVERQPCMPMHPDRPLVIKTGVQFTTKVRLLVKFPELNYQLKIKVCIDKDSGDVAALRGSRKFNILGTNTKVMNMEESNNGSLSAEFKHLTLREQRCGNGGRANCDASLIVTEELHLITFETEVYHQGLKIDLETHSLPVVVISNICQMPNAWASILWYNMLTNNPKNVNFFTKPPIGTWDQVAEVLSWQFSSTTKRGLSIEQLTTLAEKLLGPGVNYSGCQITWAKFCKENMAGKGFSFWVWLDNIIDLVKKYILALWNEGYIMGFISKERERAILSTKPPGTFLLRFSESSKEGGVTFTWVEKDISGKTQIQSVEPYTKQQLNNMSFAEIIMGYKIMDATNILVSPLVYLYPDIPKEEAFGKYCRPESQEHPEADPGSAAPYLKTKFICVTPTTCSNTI

As usually defined, the IC50 is the concentration at which inhibition is half-maximal. For the molecule `O=C(N[C@H]1CCC[C@H]2CC[C@@H](C(=O)N3CC(c4cnccc4Oc4ccccc4)C3)N2C1=O)c1cc2cc(C(F)P(=O)(O)O)ccc2s1` (stereo partly drawn) [Compound 699, (fluoro(2-(((3S,6S,9aS)-5-oxo-3-(3-(4-phenoxypyridin-3-yl)azetidine-1-carbonyl)octahydro-1H-pyrrolo[1,2-a]azepin-6-yl)carbamoyl)benzo [b]thiophen-5-yl)methyl) phosphonic acid], the IC50 in assay [1] is below 0.1 µM; in assay [2] it was 3 to 30 µM.
For `O=C(N[C@H]1CCC[C@H]2CC[C@@H](C(=O)N3CC(c4cnccc4N4CC5(COC5)C4)C3)N2C1=O)c1cc2cc(CP(=O)(O)O)ccc2s1` [Compound 704, ((2-(((3S,6S,9aS)-3-(3-(4-(2-oxa-6-azaspiro[3.3]heptan-6-yl)pyridin-3-yl)azetidine-1-carbonyl)-5-oxooctahydro-1H-pyrrolo[1,2-a]azepin-6-yl)carbamoyl)benzo [b]thiophen-5-yl)methyl) phosphonic acid], the IC50 is below 0.1 µM in assay [1] and 3 to 30 µM in assay [2].
Consider `O=C(N[C@H]1CCC[C@H]2CC[C@@H](C(=O)N3CC(c4cnccc4OCc4ccncc4)C3)N2C1=O)c1cc2cc(C(F)P(=O)(O)O)ccc2s1` (stereo partly drawn) [Compound 705, (fluoro(2-(((3S,6S,9aS)-5-oxo-3-(3-(4-(pyridin-4-ylmethoxy)pyridin-3-yl)azetidine-1-carbonyl)octahydro-1H-pyrrolo[1,2-a]azepin-6-yl)carbamoyl)benzo [b]thiophen-5-yl)methyl) phosphonic acid], for which the IC50 in assay [1] is below 0.1 µM; in assay [2] it was 3 to 30 µM.
For `COc1ccncc1[C@@H]1CCN(C(=O)[C@@H]2CC[C@@H]3CCC[C@H](NC(=O)c4cc5cc(C(F)P(=O)(O)O)ccc5s4)C(=O)N32)C1` (stereo partly drawn) [Compound 706, (fluoro(2-(((3S,6S,9aS)-3-((S)-3-(4-methoxypyridin-3-yl)pyrrolidine-1-carbonyl)-5-oxooctahydro-1H-pyrrolo[1,2-a]azepin-6-yl)carbamoyl)benzo [b]thiophen-5-yl)methyl) phosphonic acid], in that order: below 0.1 µM and 0.3 to 3 µM.
As to `COc1ccncc1[C@H]1CCN(C(=O)[C@@H]2CC[C@@H]3CCC[C@H](NC(=O)c4cc5cc(C(F)P(=O)(O)O)ccc5s4)C(=O)N32)C1` (stereo partly drawn) [Compound 707, (fluoro(2-(((3S,6S,9aS)-3-((R)-3-(4-methoxypyridin-3-yl)pyrrolidine-1-carbonyl)-5-oxooctahydro-1H-pyrrolo[1,2-a]azepin-6-yl)carbamoyl)benzo [b]thiophen-5-yl)methyl) phosphonic acid], the values for the concentration for half-maximal inhibition (IC50) in assay [1] and in assay [2] were below 0.1 µM and 0.3 to 3 µM, respectively.
Regarding `COc1nn(C)cc1C1CN(C(=O)[C@@H]2CC[C@@H]3CCC[C@H](NC(=O)c4cc5cc(C(F)P(=O)(O)O)ccc5s4)C(=O)N32)C1` (stereo partly drawn) [Compound 714, (fluoro(2-(((3S,6S,9aS)-3-(3-(3-methoxy-1-methyl-1H-pyrazol-4-yl)azetidine-1-carbonyl)-5-oxooctahydro-1H-pyrrolo[1,2-a]azepin-6-yl)carbamoyl)benzo [b]thiophen-5-yl)methyl) phosphonic acid], the values for the IC50 in assay [1] and in assay [2] were 0.1 to 1 µM and 3 to 30 µM, respectively.
Take `Cn1cc(C2CN(C(=O)[C@@H]3CC[C@@H]4CCC[C@H](NC(=O)c5cc6cc(C(F)P(=O)(O)O)ccc6s5)C(=O)N43)C2)c(F)n1` (stereo partly drawn) [Compound 715, (fluoro(2-(((3S,6S,9aS)-3-(3-(3-fluoro-1-methyl-1H-pyrazol-4-yl)azetidine-1-carbonyl)-5-oxooctahydro-1H-pyrrolo[1,2-a]azepin-6-yl)carbamoyl)benzo [b]thiophen-5-yl)methyl) phosphonic acid]: the 50% inhibitory concentration (IC50) in assay [1] fell in the range of 0.1 to 1 µM; in assay [2], 3 to 30 µM.
On to `Cn1cc(C2CN(C(=O)[C@@H]3CC[C@@H]4CCC[C@H](NC(=O)c5cc6cc(C(F)P(=O)(O)O)ccc6s5)C(=O)N43)C2)cn1` (stereo partly drawn) [Compound 716, (fluoro(2-(((3S,6S,9aS)-3-(3-(1-methyl-1H-pyrazol-4-yl)azetidine-1-carbonyl)-5-oxooctahydro-1H-pyrrolo[1,2-a]azepin-6-yl)carbamoyl)benzo [b]thiophen-5-yl)methyl) phosphonic acid], for which the figures for the IC50 in assay [1] and in assay [2] were 1 to 10 µM and 3 to 30 µM, respectively.
Turning to `O=C(N[C@H]1CCC[C@H]2CC[C@@H](C(=O)N3CC(c4cncc(Cl)c4F)C3)N2C1=O)c1cc2cc(C(F)P(=O)(O)O)ccc2s1` (stereo partly drawn) [Compound 717, ((2-(((3S,6S,9aS)-3-(3-(5-chloro-4-fluoropyridin-3-yl)azetidine-1-carbonyl)-5-oxooctahydro-1H-pyrrolo[1,2-a]azepin-6-yl)carbamoyl)benzo [b]thiophen-5-yl)fluoromethyl) phosphonic acid], the IC50 was below 0.1 µM in assay [1] and 3 to 30 µM in assay [2].
Regarding `O=C(N[C@H]1CCCC[C@H]2CC[C@@H](C(=O)N3CC(Cc4ccccn4)C3)N2C1=O)c1cc2cc(C(F)(F)P(=O)(O)O)ccc2s1` [Compound 718, (difluoro(2-(((3S,6S,10aS)-5-oxo-3-(3-(pyridin-2-ylmethyl)azetidine-1-carbonyl)decahydropyrrolo[1,2-a]azocin-6-yl)carbamoyl)benzo [b]thiophen-5-yl)methyl) phosphonic acid], the half-maximal inhibitory concentration (IC50) in assay [1] was below 0.1 µM; in assay [2] it was 0.3 to 3 µM.
Regarding `CS(=N)(=O)c1cnc(C2CN(C(=O)[C@@H]3CC[C@@H]4CCCC[C@H](NC(=O)c5cc6cc(C(F)(F)P(=O)(O)O)ccc6s5)C(=O)N43)C2)nc1` (stereo partly drawn) [Compound 719, (difluoro(2-(((3S,6S,10aS)-3-(3-(5-(S-methylsulfonimidoyl)pyrimidin-2-yl)azetidine-1-carbonyl)-5-oxodecahydropyrrolo [1,2-a]azocin-6-yl)carbamoyl)benzo [b]thiophen-5-yl)methyl) phosphonic acid], the values for the IC50 in assay [1] and in assay [2] were 0.1 to 1 µM and 3 to 30 µM, respectively.
In the case of `O=C(N[C@H]1CCC[C@H]2CC[C@@H](C(=O)N3CC(c4cccnc4)C3)N2C1=O)c1cc2cc(CP(=O)(O)O)ccc2[nH]1` [Compound 720, ((2-(((3S,6S,9aS)-5-oxo-3-(3-(pyridin-3-yl)azetidine-1-carbonyl)octahydro-1H-pyrrolo[1,2-a]azepin-6-yl)carbamoyl)-1H-indol-5-yl)methyl) phosphonic acid], the half-maximal inhibitory concentration (IC50) is 1 to 10 µM in assay [1] and 3 to 30 µM in assay [2].
As to `COC1(c2cncnc2C)CN(C(=O)[C@@H]2CC[C@@H]3CCC[C@H](NC(=O)c4cc5cc(C(F)(F)P(=O)(O)O)ccc5s4)C(=O)N32)C1` [Compound 721, (difluoro(2-(((3S,6S,9aS)-3-(3-methoxy-3-(4-methylpyrimidin-5-yl)azetidine-1-carbonyl)-5-oxooctahydro-1H-pyrrolo[1,2-a]azepin-6-yl)carbamoyl)benzo [b]thiophen-5-yl)methyl) phosphonic acid], the IC50 was 0.1 to 1 µM in assay [1] and 3 to 30 µM in assay [2].
For `COC1(c2cnccc2C)CN(C(=O)[C@@H]2CC[C@@H]3CCC[C@H](NC(=O)c4cc5cc(C(F)(F)P(=O)(O)O)ccc5s4)C(=O)N32)C1` [Compound 722, (difluoro(2-(((3S,6S,9aS)-3-(3-methoxy-3-(4-methylpyridin-3-yl)azetidine-1-carbonyl)-5-oxooctahydro-1H-pyrrolo[1,2-a]azepin-6-yl)carbamoyl)benzo [b]thiophen-5-yl)methyl) phosphonic acid], the IC50 lay within 0.1 to 1 µM in assay [1] and 3 to 30 µM in assay [2].
